IC50 and Ki data for 14 compounds are collected here from patent publication EP1082127B1 (WARNER-LAMBERT COMPANY LLC, priority 1998, dated 1999).

Test [1] deals with T1, Ich-2 enzyme (Homo sapiens, UniProt P49662).
T1 sequence (P49662 81-270 limits assumed): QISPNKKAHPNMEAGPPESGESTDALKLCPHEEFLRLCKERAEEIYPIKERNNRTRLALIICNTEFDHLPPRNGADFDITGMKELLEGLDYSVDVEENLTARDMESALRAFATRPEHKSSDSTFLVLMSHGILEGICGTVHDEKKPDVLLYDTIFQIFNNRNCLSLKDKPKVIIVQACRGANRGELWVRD
T1 sequence (P49662 290-377 limits assumed): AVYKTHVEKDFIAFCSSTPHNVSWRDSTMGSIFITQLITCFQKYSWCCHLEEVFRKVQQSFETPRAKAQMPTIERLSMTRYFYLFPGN
Nature of the test: Ich-2 Colorimetric Dose-Response (IC50) Assay. Particulars: enzyme 64 nM, 60 µM Ac-Leu-Glu-Val-Asp-pNA; read-out: ICH2 IC50 (Caspase 4). Type of test: biochemical. The method, then:
(§1) Diluted inhibitor stocks are prepared by two-fold serial dilution from a primary stock whose concentration is selected (based on screening results or on prior attempts at IC50 evaluation) to achieve approximately 95% inhibition in the most concentrated well. Aliquots of each dilution are transferred to a microtitre plate in triplicate.
(§2) ICE enzyme is diluted to approximately 24 nM in HGE buffer (100 mM Hepes pH 7.5, 0.5 mM EDTA, 20% glycerol, 0.1% Bovine Serum Albumin (BSA), and activated by adding dithiothreitol (DTT) to a final concentration of 5 mM. The activated enzyme is then aliquoted into wells containing inhibitor or vehicle, and the plate is preincubated for 60 minutes at ambient temperature. Substrate (Ac-Tyr-Val-Ala-Asp-pNA) is added to each well to a final concentration of 50 µM, and plates are placed in the microtitre plate-reader thermostated to 25°C. Beginning 5 minutes after addition of substrate, absorbance (405 nm) of wells is monitored for 1 hour, and activity is calculated as the mean rate of change in absorbance during this interval.
Inhibition of Ich-2 enzyme is assayed as described above for ICE, except that enzyme is used at 64 nM, and 60 µM of the Ich-2-specific substrate Ac-Leu-Glu-Val-Asp-pNA is used instead of the ICE substrate Ac-Tyr-Val-Ala-Asp-pNA.

For test [2], the target named is T2, ICE (Homo sapiens, UniProt P29466).
T2 sequence (P29466 120-297 limits assumed): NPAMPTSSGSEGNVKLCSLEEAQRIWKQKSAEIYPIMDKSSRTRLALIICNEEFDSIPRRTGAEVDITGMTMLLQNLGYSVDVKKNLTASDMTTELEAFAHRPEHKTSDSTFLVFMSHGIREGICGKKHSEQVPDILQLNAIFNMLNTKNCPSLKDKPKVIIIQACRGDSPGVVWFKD
T2 sequence (P29466 317-404 limits assumed): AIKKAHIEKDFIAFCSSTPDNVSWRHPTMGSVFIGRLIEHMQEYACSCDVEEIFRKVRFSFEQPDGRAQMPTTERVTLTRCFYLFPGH
Nature of the test: ICE Colorimetric Dose-Response (IC50) Assay. Particulars: 60 minutes preincubation, 50 µM Ac-Tyr-Val-Ala-Asp-pNA, 25°C. Format: biochemical. On the procedure: as §1, §2

Test [3] relates to IL-1β production in human peripheral blood mononuclear cells (PBMCs). As to the kind of experiment: PBMC Cellular Assay - IC50 Determinations (LPS-stimulated IL-1β production, ELISA). Format: cell-based. Particulars: human PBMCs stimulated overnight with 10 ng/mL LPS, mature IL-1β by ELISA. An excerpt:
Further evidence that compounds of Formula I are inhibitors of ICE is provided by their ability to inhibit IL-1β production in human peripheral blood mononuclear cells (PBMCs) as described herein. PBMCs are isolated from heparinized blood by centrifugation over a ficoll cushion, then washed three times with phosphate-buffered saline. PBMCs are suspended in a medium containing RPMI 1640 with glutamine, penicillin, streptomycin, and 2% human AB serum, then plated at 10^6 cells per well in 96-well flat bottom plates. PBMCs are stimulated overnight with 10 ng/mL of lipopolysaccharide (LPS, E. coli strain 0111:B4; Calbiochem) in the presence or absence of a compound of Formula I. Medium is harvested, and the level of mature IL-1β was determined using an ELISA kit from R&D Systems. Cells were cultured for an additional 4 hours in the presence of 3-(4,5-dimethylthiazol-2-yl)-2,5-diphenyltetrazolium bromide (MTT) to determine viability.
Background: An ELISA detects its analyte on a solid surface through an enzyme-linked reagent.

For test [4], the target named is T2, ICE. Nature of the test: ICE inhibition, Ki determination (fluorogenic substrate Ac-Tyr-Val-Ala-Asp-AMC). Format: biochemical. The conditions noted are these: 15 µM Ac-Tyr-Val-Ala-Asp-AMC, 0.5 nM enzyme, 30°C, reversible competitive model. The method, then: Serial dilutions of each compound of the invention are prepared using an initial 8-fold dilution of a DMSO stock into HGE (100 mM HEPES, 20% glycerol v/v, 0.5 mM EDTA), followed by seven serial 2-fold dilutions into HGE + 12.5% DMSO. Ten microliters of diluted stocks or of vehicle (HGE + 12.5% DMSO) are placed in triplicate onto a 96-well microtiter plate. Enzyme is diluted into assay buffer (HGE, 5 mM DTT, 15 µM Ac-Tyr-Val-Ala-Asp-AMC; 0.5 nM final enzyme concentration, pre-warmed to 30°C), and this reaction mixture is added to the plate at 90 µL/well. Substrate hydrolysis is monitored for 300 seconds at 30°C using 385 and 460 nm excitation and emission filters, respectively. Triplicate curves are averaged, and slopes are evaluated by linear regression. To evaluate Ki, plots of percent inhibition vs inhibitor concentration are fit by non-linear regression to a reversible, competitive model: [formula] where the competition factor is (1 + [S]/KM) = 2.

As to `CCOC1OC(=O)CC1NC(=O)C(CC(=O)NCCc1c[nH]c2ccccc12)C(C)C` (centres unmarked) [Example 36, N^1-(2-Ethoxy-5-oxo-tetrahydro-furan-3-yl)-N^4-[2-(1H-indol-3-yl)-ethyl]-2-isopropyl-succinamide], the half-maximal inhibitory concentration (IC50) in test [1] was determined as 101000 nM; in test [2], 599 nM; in test [3], 1300 nM. Also, the inhibition constant (Ki) in test [4] was 630 nM.

On to `Cc1cc2ncn(CCN(C)C(=O)CC(C(=O)NC(C=O)CC(=O)O)C(C)C)c2cc1C` (centres unmarked) [Example 60, 3-[2-({[2-(5,6-Dimethyl-benzoimidazol-1-yl)-ethyl]-methylcarbamoyl}-methyl)-3-methyl-butyrylamino]4-oxo-butyric acid], for which the IC50 in test [1] was 12700 nM; in test [2], 468 nM; in test [3] it was 5000 nM. Besides, the Ki in test [4] turned out to be 9.2 nM.

With `CC(C)C(CC(=O)NCCc1cn(C)c2ccccc12)C(=O)NC(C=O)CC(=O)O` (centres unmarked) [Example 54, 3-(3-Methyl-2-{[2-(1-methyl-1H-indol-3-yl)-ethylcarbamoyl]-methyl}-butyrylamino)-4-oxo-butyric acid], the IC50 in test [1] stood at 11100 nM; in test [2], 37 nM; in test [3], 2850 nM. In addition, the affinity in test [4] corresponds to a Ki of 4 nM.

For the compound `CC(C)C(CC(=O)NCCCc1ccc(O)cc1)C(=O)NC(CC(=O)O)C(=O)CNS(=O)(=O)CC12CCC(CC1=O)C2(C)C` (centres unmarked) [Example 17, 5-(7,7-Dimethyl-2-oxo-bicyclo[2.2.1]hept-1-ylmethanesulfonylamino)-3-{3-methyl-2-[[3-(4-hydroxyphenyl)-propylcarbamoyl]-methyl]-butyrylamino}-4-oxo-pentanoic acid], the half-maximal inhibitory concentration (IC50) amounted to 4680 nM in test [1], 79 nM in test [2] and 2250 nM in test [3]. Further, the Ki in test [4] was found to be 32.9 nM.

For `CC(C)C(CC(N)=O)C(=O)NC(CC(=O)O)C(=O)CNS(=O)(=O)CCc1ccccc1` (centres unmarked) [Example 4, 3-(2-Carbamoylmethyl-3-methyl-butyrylamino)-4-oxo-5-(2-phenyl-ethanesulfonyl-amino)-pentanoic acid], the IC50 in test [1] was found to be 9720 nM; in test [2], 16800 nM; in test [3] it was 65000 nM. Further, the inhibitory constant (Ki) in test [4] was determined as 2180 nM.

As to `CC(C)C(CC(=O)NCCn1cnc2ccccc21)C(=O)NC(C=O)CC(=O)O` (centres unmarked) [Example 53, 3-{2-[(2-Benzoimidazol-1-yl-ethylcarbamoyl)-methyl]-3-methyl-butyrylamino}-4-oxo-butyric acid], the IC50 amounted to 32500 nM in test [1], 73.7 nM in test [2] and 8300 nM in test [3]. Further, in test [4], the Ki is 20 nM.

Consider `CC(C)C(CC(=O)NCCOc1ccccc1)C(=O)NC(CC(=O)O)C(=O)CNS(=O)(=O)CC12CCC(CC1=O)C2(C)C` (centres unmarked) [Example 9, 5-(7,7-Dimethyl-2-oxo-bicyclo[2.2.1]hept-1-ylmethanesulfonylamino)-3-{3-methyl-2-[(2-phenoxy-ethylcarbamoyl)-methyl]-butyrylamino}-4-oxo-pentanoic acid], for which the results for the IC50 in test [1], in test [2] and in test [3] were 4220 nM, 53 nM and 2100 nM, respectively. This compound displayed an inhibitory constant (Ki) in test [4] of 23.4 nM.

With `CC(=O)c1ccc2[nH]cc(CCNC(=O)CC(C(=O)NC(CC(=O)O)C(=O)CNS(=O)(=O)CC34CCC(CC3=O)C4(C)C)C(C)C)c2c1` (centres unmarked) [Example 33, 3-(2-{[2-(5-Acetyl-1H-indol-3-yl)-ethylcarbamoyl]-methyl}-3-methyl-butyrylamino)-5-(7,7-dimethyl-2-oxo-bicyclo[2.2.1]hept-1-ylmethanesulfonylamino)-4-oxo-pentanoic acid], the 50% inhibitory concentration (IC50) came to 3090 nM in test [1], 23 nM in test [2] and 1600 nM in test [3]. Further, the Ki in test [4] turned out to be 6.5 nM.

On to `CC(C)C(CC(=O)NCCc1ccccc1)C(=O)NC(CC(=O)O)C(=O)CNS(=O)(=O)CC12CCC(CC1=O)C2(C)C` (centres unmarked) [Example 3, 5-(7,7-Dimethyl-2-oxo-bicyclo[2.2.1]hept-1-ylmethanesulfonylamino)-3-[3-methyl-2-(phenethylcarbamoyl-methyl)-butyrylamino]-4-oxo-pentanoic acid], for which the half-maximal inhibitory concentration (IC50) came to 4650 nM in test [1], 400 nM in test [2] and 3000 nM in test [3]. Further, the inhibition constant Ki in test [4] was found to be 45 nM.

With `CC(CC(=O)NCCc1ccccc1)C(=O)NC(CC(=O)O)C(=O)CNS(=O)(=O)CCc1ccccc1` (centres unmarked) [Example 1, 3-(2-Methyl-3-phenethylcarbamoyl-propionylamino)-4-oxo-5-(2-phenylethanesulfonylamino)-pentanoic acid], the IC50 in test [1] came out at 89000 nM; in test [2], 14500 nM; in test [3] it was 82500 nM. The compound also came in with a Ki in test [4] of 1600 nM.

In the case of `CC(C)[C@H](CC(=O)NCCc1cn(C)c2ccccc12)C(=O)NC(CC(=O)O)C(=O)CNS(=O)(=O)CC12CCC(CC1)C2(C)C` (some centres unmarked) [Example 25], the half-maximal inhibitory concentration (IC50) in test [1] is 3540 nM; in test [2], 48.3 nM; in test [3], 1100 nM. Also, the Ki in test [4] came out at 5.8 nM.

`CC(C)C(CC(=O)NCCCc1ccc2ccccc2n1)C(=O)NC(CC(=O)O)C(=O)CNS(=O)(=O)CC12CCC(CC1=O)C2(C)C` (centres unmarked) [Example 27, 5-(7,7-Dimethyl-2-oxo-bicyclo[2.2.1]hept-1-ylmethanesulfonylamino)-3-{3-methyl-2-[(3-quinolin-2-yl-propylcarbamoyl)-methyl]-butyrylamino}-4-oxo-pentanoic acid]: the values for the half-inhibitory concentration (IC50) in test [1], in test [2] and in test [3] were 9930 nM, 147 nM and 1000 nM, respectively. Moreover, in test [4], the inhibition constant Ki was determined as 17.5 nM.

As to `CC(C)C(CC(=O)NCCCc1ccccc1)C(=O)NC(CC(=O)O)C(=O)CNS(=O)(=O)CC12CCC(CC1=O)C2(C)C` (centres unmarked) [Example 12, 5-(7,7-Dimethyl-2-oxo-bicyclo[2.2.1]hept-1-ylmethanesulfonylamino)-3-{3-methyl-2-[(3-phenyl-propylcarbamoyl)-methyl]-butyrylamino}-4-oxo-pentanoic acid], the IC50 in test [1] stood at 1710 nM; in test [2], 61 nM; in test [3], 1200 nM. Also, the Ki in test [4] was 12.8 nM.

Turning to `CC(C)C(CC(=O)NCCc1c[nH]c2cc(F)ccc12)C(=O)NC(CC(=O)O)C(=O)CNS(=O)(=O)CC12CCC(CC1=O)C2(C)C` (centres unmarked) [Example 20, 5-(7,7-Dimethyl-2-oxo-bicyclo[2.2.1]hept-1-ylmethanesulfonylamino)-3-(2-{[2-(6-fluoro-1H-indol-3-yl)-ethylcarbamoyl]-methyl}-3-methyl-butyrylamino)-4-oxo-pentanoic acid], the IC50 in test [1] is 62000 nM; in test [2], 11 nM; in test [3], 2450 nM. In test [4], this compound registered an inhibitory constant (Ki) of 1.5 nM.

One may read the IC50 as the concentration that inhibits the measured activity by half. For orientation: Ki means the dissociation constant of the complex between target and ligand, obtained from inhibition or displacement. Low values mean a stronger hold on the target, high ones a looser hold on the target.
